The record followed here is patent US20170304409A1, “COMPOSITIONS USEFUL FOR THE PREVENTION AND/OR TREATMENT OF INFECTIONS AND INFLAMMATIONS” (ISTITUTO PROFILATTICO E FARMACEUTICO CANDIOLI & C. SPA in …, priority 2014, published 2017).

This experiment concerns S. aureus ATCC 29213. Description: In vitro susceptibility test, antimicrobial dilution method (CLSI), MIC. Format: cell-based. As to conditions: Staphylococcus aureus, ATCC29213, read-out: MIC (Minimum Inhibitory Concentration). On the procedure:
For all the tests performed, there was a positive control of antifungal activity using fluconazole (for Malassezia) and ceftriaxone (for the bacterial strains) and a negative control (absence of the compounds) wherein correct microbial growth was evaluated.

The structures appear in SMILES notation. Values after ≈ are worked out from the molar mass of the structure shown.

For `C[C@@H]1O[C@@H](O[C@@H]2[C@@H](O)[C@H](OCCc3ccc(O)c(O)c3)O[C@H](CO)[C@H]2OC(=O)/C=C/c2ccc(O)c(O)c2)[C@H](O)[C@H](O)[C@H]1O` [Verbascoside, verbascoside], the MIC turned out to be 3000 µg/mL (≈ 4.8 mM).
